± gives the standard deviation of the averaged measurements.
What was measured:
Assay in all cases: level (log10 ratio to DMSO vehicle control); higher = higher biomarker level / cell amount than vehicle control
[1] = compound: C=CC(=O)OCC(F)(F)C(F)(F)C(F)(F)C(F)(F)C(F)(F)C(F)(F)C(F)(F)C(F)F [1H,1H,9H-Perfluorononyl acrylate]; details: in DMSO
Procedure: (§1)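 BioMAP Diversity Plus panel of 12 human primary cell co-culture systems (3C, 4H, LPS, SAg, BT, BF4T, BE3C, CASM3C, HDF3CGF, KF3CT, MyoF, Mphg). Compounds were added 1 h before stimulation and left for 24 h (MyoF 48 h; BT 72 h for soluble read-outs or 6 d for IgG). Biomarkers were read by ELISA, cytotoxicity by SRB, PBMC viability and proliferation by Alamar Blue. Each well value was divided by the mean of 8 DMSO control wells on the same plate and log10 transformed; duplicate blinded samples were tested at 4 concentrations.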

[2] = compound: O=C(O)C(F)(F)C(F)(F)C(=O)O [Tetrafluorosuccinic acid]; details: in DMSO
Procedure: as §1

[3] = compound: O=C(CC(=O)C(F)(F)C(F)(F)C(F)(F)F)c1cccs1 [(Perfluorobutyryl)-2-thenoylmethane]; details: in DMSO
Procedure: as §1

[4] = compound: FC(F)(I)C(F)(F)C(F)(F)C(F)(F)C(F)(F)C(F)(F)I [1,6-Diiodoperfluorohexane]; details: 6700 nM; in DMSO
Procedure: as §1

[5] = compound: O=C(O)C(F)(F)C(F)(F)C(F)(F)C(F)(F)C(F)(F)C(F)(F)C(F)(F)F [Perfluorooctanoic acid]; details: in DMSO
Procedure: as §1

[6] = compound: C=CC(=O)OCC(F)(F)C(F)(F)C(F)(F)C(F)(F)COC(=O)C=C [1H,1H,6H,6H-Perfluorohexane-1,6-diol diacrylate]; details: 6700 nM; in DMSO
Procedure: as §1

[7] = compound: OCCC(F)(F)C(F)(F)C(F)(F)C(F)(F)C(F)(F)C(F)(F)C(F)(F)C(F)(F)F [8:2 Fluorotelomer alcohol]; details: 6700 nM; in DMSO
Procedure: as §1

[8] = compound: O=C(O)C(F)(F)C(F)(F)C(F)(F)C(F)(F)C(F)(F)C(F)(F)C(F)(F)F [Ammonium perfluorooctanoate]; details: in DMSO
Procedure: as §1

[9] = compound: OCCCC(F)(F)C(F)(F)C(F)(F)C(F)(F)C(F)(F)C(F)(F)C(F)(F)C(F)(F)F [3-(Perfluorooctyl)propanol]; details: 6700 nM; in DMSO
Procedure: as §1

| Test System | level (log10) ([1]; 6700 nM) | level (log10) ([1]; 20000 nM) | level (log10) ([1]; 60000 nM) | level (log10) ([2]; 6700 nM) | level (log10) ([2]; 20000 nM) | level (log10) ([2]; 60000 nM) | level (log10) ([3]; 6700 nM) | level (log10) ([3]; 20000 nM) | level (log10) [4] | level (log10) ([5]; 6700 nM) | level (log10) ([5]; 20000 nM) | level (log10) ([5]; 60000 nM) | level (log10) [6] | level (log10) [7] | level (log10) ([8]; 6700 nM) | level (log10) ([8]; 20000 nM) | level (log10) ([8]; 60000 nM) | level (log10) [9] |
| --- | --- | --- | --- | --- | --- | --- | --- | --- | --- | --- | --- | --- | --- | --- | --- | --- | --- | --- |
| LPS:CD141/Thrombomodulin | -0.028 ± 0.0042 | -0.0695 ± 0.035 | -0.108 ± 0.021 | 0.019 ± 0.1 | 0.043 ± 0.057 | 0.04 ± 0.047 | -0.009 ± 0.042 | -0.0665 ± 0.077 | 0.007 | 0.068 ± 0.076 | 0.0185 ± 0.077 | 0 ± 0.03 | -0.0375 ± 0.013 | -0.0605 ± 0.14 | 0.0135 ± 0.025 | 0.0105 ± 0.013 | -0.004 ± 0.016 | 0.092 ± 0.031 |
| BF4T:Keratin 8/18 | -0.022 ± 0.013 | -0.007 ± 0.013 | -0.0385 ± 0.037 | 0.013 ± 0.018 | -0.0115 ± 0.037 | -0.0165 ± 0.03 | -0.0735 ± 0.0035 | -0.127 ± 0.016 | 0.024 | -0.0045 ± 0.012 | -0.0025 ± 0.0092 | 0.0025 ± 0.022 | 0.0065 ± 0.029 | -0.008 ± 0.0028 | 0.009 ± 0.028 | 0.013 ± 0.0057 | 0.017 ± 0.014 | 0.021 ± 0.051 |
| BF4T:CD54/ICAM-1 | -0.0365 ± 0.033 | -0.0385 ± 0.049 | -0.0455 ± 0.019 | -0.0145 ± 0.013 | -0.018 ± 0.0042 | -0.0295 ± 0.0021 | 0.011 ± 0.017 | -0.0745 ± 0.00071 | -0.073 | -0.0115 ± 0.0064 | -0.0025 ± 0.012 | -0.014 ± 0.028 | -0.0575 ± 0.0021 | -0.0365 ± 0.015 | -0.009 ± 0.02 | -0.016 ± 0.0014 | -0.0415 ± 0.023 | -0.007 ± 0.016 |
| SAg:CD40 | -0.027 ± 0.021 | -0.0725 ± 0.023 | -0.133 ± 0.026 | 0 ± 0.023 | 0.001 ± 0.0014 | -0.018 ± 0.0071 | -0.27 ± 0.11 | -0.412 ± 0.093 | -0.018 | 0.002 ± 0.013 | -0.017 ± 0.014 | -0.0415 ± 0.012 | -0.0895 ± 0.023 | 0 ± 0.0042 | -0.008 ± 0.011 | -0.022 | -0.0695 ± 0.011 | -0.029 ± 0.025 |
| SAg:PBMC Cytotoxicity | -0.015 ± 0.0057 | -0.0795 ± 0.0092 | -0.194 ± 0.1 | -0.002 ± 0.048 | 0.0115 ± 0.013 | 0.039 ± 0.013 | -0.0295 ± 0.019 | -0.058 ± 0.03 | 0.026 | 0.0195 ± 0.0021 | 0.022 ± 0.0085 | 0.042 ± 0.016 | -0.066 ± 0.038 | -0.0295 ± 0.012 | 0.011 ± 0.035 | 0.049 ± 0.011 | 0.052 ± 0.04 | -0.003 ± 0.023 |
| SAg:CCL2/MCP-1 | -0.0425 ± 0.015 | -0.0565 ± 0.005 | -0.033 ± 0.13 | -0.006 ± 0.02 | -0.0095 ± 0.0035 | -0.0085 ± 0.0064 | -0.06 ± 0.0042 | -0.146 ± 0.0014 | 0.001 | 0.0005 ± 0.0021 | 0.0025 ± 0.011 | 0.048 ± 0.0057 | -0.0875 ± 0.04 | 0.0025 ± 0.0035 | -0.0035 ± 0.0035 | -0.007 ± 0.011 | 0.01 ± 0.034 | -0.0025 ± 0.021 |
| 4H:CD106/VCAM-1 | -0.02 ± 0.0071 | -0.023 ± 0.0028 | -0.0425 ± 0.03 | 0.029 ± 0.033 | 0.0065 ± 0.005 | 0.0485 ± 0.018 | -0.009 ± 0.0071 | -0.234 ± 0.04 | -0.052 | 0.0045 ± 0.022 | -0.001 ± 0.034 | -0.0165 ± 0.039 | -0.057 ± 0.0057 | -0.008 ± 0.013 | 0.0225 ± 0.0021 | 0.036 ± 0.0085 | 0.0215 ± 0.026 | 0.0065 ± 0.021 |
| SAg:CD38 | -0.0395 ± 0.035 | -0.0245 ± 0.0035 | -0.031 ± 0.011 | -0.003 ± 0.027 | 0.001 ± 0.0028 | 0.006 ± 0.027 | -0.08 ± 0.055 | -0.223 ± 0.035 | -0.008 | -0.008 ± 0.0085 | -0.012 ± 0.023 | -0.0405 ± 0.0064 | -0.0305 ± 0.0078 | -0.004 | -0.011 ± 0.018 | -0.0055 ± 0.0064 | -0.051 ± 0.017 | -0.017 ± 0.016 |
| LPS:SRB | -0.006 ± 0.0028 | 0.003 ± 0.0042 | -0.0055 ± 0.011 | -0.0055 ± 0.013 | -0.008 ± 0.0014 | -0.017 ± 0.0042 | -0.015 ± 0.014 | -0.117 ± 0.019 | 0.012 | -0.01 ± 0.011 | 0.0085 ± 0.012 | -0.0265 ± 0.0064 | -0.0065 ± 0.0092 | -0.0125 ± 0.011 | -0.006 ± 0.0071 | -0.0065 ± 0.00071 | -0.0245 ± 0.005 | -0.033 ± 0.018 |
| BT:Secreted IgG | -0.011 ± 0.027 | -0.0185 ± 0.039 | -0.412 ± 0.43 | -0.0035 ± 0.033 | 0.0055 ± 0.011 | 0.0155 ± 0.0035 | -0.009 ± 0.018 | -0.855 ± 0.016 | 0.019 | 0.0095 ± 0.026 | -0.005 ± 0.013 | -0.0165 ± 0.0078 | -0.489 ± 0.25 | -0.0885 ± 0.088 | 0.032 ± 0.017 | 0.0155 ± 0.037 | -0.019 ± 0.033 | 0.009 ± 0.016 |

Reference: the supplement of paper PMC10331698
